Results as given in patent publication US20110038885A1, “CHEMOKINE ANALOGS” (priority 2007, published 2011).
Bridge positions count the residues as written; N and C are the ends. Square brackets hold non-standard residues; d marks the D form. Peptide text beside a SMILES is read from it. * marks the point of attachment. Lauroyl = CCCCCCCCCCCC(=O)*; X1 = O=C(CN1CCN(CCO)CC1)*; Octanoyl = CCCCCCCC(=O)*

Columns and labels:
[1] = Half-life in rat in vivo; details: for half-life: read-out: T ½ rat in vivo
[2] = system: IL-8; assay: In vitro chemotaxis, inhibition v IL-8; format: cell-based, human; set-up: concentration or dose not given beside the values
In short: (§1)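 Trans-well migration toward IL-8 or MCP-1 placed below, with agent added to THP-1 cells (10^4-10^6) in the top well and incubation at 37° C (e.g. 4 hours). MTT absorbance at 595 nm, interpolated on a cell standard curve, gives migrated cell numbers; TGFβ-type negative control and cytotoxicity check included.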

[3] = Half-life in rat plasma in vitro; format: in vitro ADME; details: for half-life: read-out: T ½ rat plasma in vitro (converted)
[4] = system: MCP-1; assay: In vitro chemotaxis (trans-well migration) v MCP-1; format: cell-based, human
In short: as §1

For `CC[C@H](C)[C@@H]1NC(=O)[C@H](Cc2c[nH]c3ccccc23)NC(=O)[C@H](CCCCN)NC(=O)[C@@H](N)CSSC[C@@H](C(N)=O)NC(=O)[C@H](CCC(N)=O)NC1=O` [Example 1, c(Cys-Lys-Trp-Ile-Gln-Cys)-NH2] (H-CKWIQC-NH2; disulfide 1-6), the half-life [1] was 19 min, the “v IL-8 inhibition (%)” value [2] was 86.7% and the half-life [3] was > 1680 min. It also gave an EC50 [4] of 12 nM.
For `CC[C@H](C)[C@@H]1NC(=O)[C@H](Cc2c[nH]c3ccccc23)NC(=O)[C@H](CCCCN)NC(=O)[C@H](CCC(N)=O)NC(=O)[C@H](CCCCN)NC(=O)[C@@H]2CCCN2C(=O)[C@H](CC(=O)O)NC(=O)[C@@H](NC(=O)[C@H](CC(C)C)NC(C)=O)CSSC[C@@H](C(N)=O)NC(=O)[C@H](CCC(N)=O)NC1=O` [Example 19, Ac-Leu-c(Cys-Asp-Pro-Lys-Gln-Lys-Trp-Ile-Gln-Cys)-NH2] (Ac-LCDPKQKWIQC-NH2; disulfide 2-11), the half-life [1] was < 5 min, the “v IL-8 inhibition (%)” value [2] was 100.5% and the EC50 [4] was 7 nM.
For `CC[C@H](C)[C@@H]1NC(=O)[C@H](Cc2c[nH]c3ccccc23)NC(=O)[C@H](CCCCN)NC(=O)[C@H](CCC(N)=O)NC(=O)[C@H](CCCCN)NC(=O)[C@@H]2CCCN2C(=O)[C@@H](NC(=O)[C@H](CC(=O)O)NC(=O)[C@H](CC(C)C)NC(C)=O)CSSC[C@@H](C(N)=O)NC(=O)[C@H](CCC(N)=O)NC1=O` [Example 20, Ac-Leu-Asp-c(Cys-Pro-Lys-Gln-Lys-Trp-Ile-Gln-Cys)-NH2] (Ac-LDCPKQKWIQC-NH2; disulfide 3-11), the “T ½ rat in vivo” value [1] was 4.7 min, the half-life [1] was 2.7 min and the “v IL-8 inhibition (%)” value [2] was 93.9%. The EC50 [4] was 8 nM.
For `CC[C@H](C)[C@@H]1NC(=O)[C@H](Cc2c[nH]c3ccccc23)NC(=O)[C@H](CCCCN)NC(=O)[C@H](CCC(N)=O)NC(=O)[C@H](CCCCN)NC(=O)[C@@H](NC(=O)[C@@H]2CCCN2C(=O)[C@H](CC(=O)O)NC(=O)[C@H](CC(C)C)NC(C)=O)CSSC[C@@H](C(N)=O)NC(=O)[C@H](CCC(N)=O)NC1=O` [Example 21, Ac-Leu-Asp-Pro-c(Cys-Lys-Gln-Lys-Trp-Ile-Gln-Cys)-NH2] (Ac-LDPCKQKWIQC-NH2; disulfide 4-11), the half-life [1] was 22 min, the “v IL-8 inhibition (%)” value [2] was 96.3% and the EC50 [4] was 7 nM.
With `CC[C@H](C)[C@@H]1NC(=O)[C@H](Cc2c[nH]c3ccccc23)NC(=O)[C@@H](CCCCN)NC(=O)[C@H](CCC(N)=O)NC(=O)[C@H](CCCCN)NC(=O)[C@@H]2CCCN2C(=O)[C@H](CC(=O)O)NC(=O)[C@H](CC(C)C)NC(=O)[C@@H](NC(C)=O)CSSC[C@@H](C(N)=O)NC(=O)[C@H](CCC(N)=O)NC1=O` [Example 27, Ac-c(Cys-Leu-Asp-Pro-Lys-Gln-D-Lys-Trp-Ile-Gln-Cys)-NH2] (Ac-CLDPKQ[dK]WIQC-NH2; disulfide 1-11) the half-life [1] was 22.7 min, the “v IL-8 inhibition (%)” value [2] was 91.0% and the EC50 [4] was 7 nM.
With `CC[C@H](C)[C@@H]1NC(=O)[C@H](Cc2c[nH]c3ccccc23)NC(=O)[C@H](CCCCN)NC(=O)[C@@H](CCC(N)=O)NC(=O)[C@H](CCCCN)NC(=O)[C@@H]2CCCN2C(=O)[C@H](CC(=O)O)NC(=O)[C@H](CC(C)C)NC(=O)[C@@H](NC(C)=O)CSSC[C@@H](C(N)=O)NC(=O)[C@H](CCC(N)=O)NC1=O` [Example 28, Ac-c(Cys-Leu-Asp-Pro-Lys-D-Gln-Lys-Trp-Ile-Gln-Cys)-NH2] (Ac-CLDPK[dQ]KWIQC-NH2; disulfide 1-11) the half-life [1] was 14 min, the “v IL-8 inhibition (%)” value [2] was 96.9% and the EC50 [4] was 4 nM.
For `CC[C@H](C)[C@@H]1NC(=O)[C@H](Cc2c[nH]c3ccccc23)NC(=O)[C@H](CCCCN)NC(=O)[C@H](CCC(N)=O)NC(=O)[C@H](CCCCN)NC(=O)[C@H]2CCCN2C(=O)[C@H](CC(=O)O)NC(=O)[C@H](CC(C)C)NC(=O)[C@@H](NC(C)=O)CSSC[C@@H](C(N)=O)NC(=O)[C@H](CCC(N)=O)NC1=O` [Example 30, Ac-c(Cys-Leu-Asp-D-Pro-Lys-Gln-Lys-Trp-Ile-Gln-Cys)-NH2] (Ac-CLD[dP]KQKWIQC-NH2; disulfide 1-11), the half-life [1] was < 10 min, the “v IL-8 inhibition (%)” value [2] was 99.2% and the EC50 [4] was 8 nM.
In the case of `CC[C@H](C)[C@@H]1NC(=O)[C@H](Cc2c[nH]c3ccccc23)NC(=O)[C@H](CCCCN)NC(=O)[C@H](CCC(N)=O)NC(=O)[C@H](CCCCN)NC(=O)[C@@H]2CCCN2C(=O)[C@H](CC(=O)O)NC(=O)[C@H](CC(C)C)NC(=O)[C@@H](N)CSSC[C@@H](C(N)=O)NC(=O)[C@H](CCC(N)=O)NC1=O` [Example 33, c(Cys-Leu-Asp-Pro-Lys-Gln-Lys-Trp-Ile-Gln-Cys)-NH2] (H-CLDPKQKWIQC-NH2; disulfide 1-11), the half-life [1] is reported as 6 min, the “v IL-8 inhibition (%)” value [2] is reported as 90.0% and the half-life [3] is reported as > 900 min. The EC50 [4] was 20 nM.
For `CC[C@H](C)[C@@H]1NC(=O)[C@H](Cc2c[nH]c3ccccc23)NC(=O)[C@H](CCCCN)NC(=O)[C@@H](NC(=O)[C@H](CCC(N)=O)NC(=O)[C@@H](N)CCCCN)CSSC[C@@H](C(N)=O)NC(=O)[C@H](CCC(N)=O)NC1=O` [Example 48, Lys-Gln-c(Cys-Lys-Trp-Ile-Gln-Cys)-NH2] (H-KQCKWIQC-NH2; disulfide 3-8), the half-life [1] was < 5 min, the “v IL-8 inhibition (%)” value [2] was 91.9% and the EC50 [4] was 8 nM.
For `CCCCCCCC(=O)NCCCC[C@H](NC(=O)[C@H](CC(=O)O)NC(=O)[C@H]1CSSC[C@@H](N)C(=O)N[C@H](CCC(N)=O)C(=O)N[C@H]([C@H](C)CC)C(=O)N[C@H](Cc2c[nH]c3ccccc23)C(=O)N[C@H](CCCCN)C(=O)N[C@H](CCC(N)=O)C(=O)N[C@H](CCCCN)C(=O)N2CCC[C@@H]2C(=O)N[C@H](CC(=O)O)C(=O)N[C@H](CC(C)C)C(=O)N1)C(=O)O` [Example 148, c(D-Cys-D-Gln-D-Ile-D-Trp-D-Lys-D-Gln-D-Lys-D-Pro-D-Asp-D-Leu-D-Cys)-Asp-Lys(Nε-octanoyl)-OH] (H-[dC][dQ][dI][dW][dK][dQ][dK][dP][dD][dL][dC]DK(Octanoyl)-OH; disulfide 1-11), the half-life [1] was 39 min, the “v IL-8 inhibition (%)” value [2] was 100.9% and the EC50 [4] was 6 nM.
For `CC[C@@H](C)[C@H]1NC(=O)[C@@H](CCC(N)=O)NC(=O)[C@H](NC(=O)CN2CCN(CCO)CC2)CSSC[C@H](C(N)=O)NC(=O)[C@@H](CC(C)C)NC(=O)[C@@H](CC(=O)O)NC(=O)[C@H]2CCCN2C(=O)[C@@H](CCCCN)NC(=O)[C@@H](CCC(N)=O)NC(=O)[C@@H](CCCCN)NC(=O)[C@@H](Cc2c[nH]c3ccccc23)NC1=O` [Example 152, HEPA-c(D-Cys-D-Gln-D-Ile-D-Trp-D-Lys-D-Gln-D-Lys-D-Pro-D-Asp-D-Leu-D-Cys)-NH2] (X1-[dC][dQ][dI][dW][dK][dQ][dK][dP][dD][dL][dC]-NH2; disulfide 1-11), the half-life [1] was 38 min, the “v IL-8 inhibition (%)” value [2] was 103.5% and the EC50 [4] was 20 nM.
In the case of `CCCCCCCCCCCC(=O)NCCCC[C@H](NC(C)=O)C(=O)N[C@H]1CSSC[C@@H](C(N)=O)NC(=O)[C@H](CCC(N)=O)NC(=O)[C@H]([C@@H](C)CC)NC(=O)[C@H](Cc2c[nH]c3ccccc23)NC(=O)[C@H](CCCCN)NC(=O)[C@H](CCC(N)=O)NC(=O)[C@H](CCCCN)NC(=O)[C@@H]2CCCN2C(=O)[C@H](CC(=O)O)NC(=O)[C@H](CC(C)C)NC1=O` [Example 162, Ac-Lys(N/-dodecanoyl)-c(Cys-Leu-Asp-Pro-Lys-Gln-Lys-Trp-Ile-Gln-Cys)-NH2] (Ac-K(Lauroyl)CLDPKQKWIQC-NH2; disulfide 2-12), the half-life [1] is reported as 17 min, the “v IL-8 inhibition (%)” value [2] is reported as 101.1% and the EC50 [4] is reported as 20 nM.
For `CC(C)(C)OC(=O)N[C@@H](Cc1c[nH]c2ccccc12)C(=O)NCC(=O)NC1CCC(=O)NC1=O` (stereo partly drawn) [Example 163, BOC-Trp-Gly-α-aminoglutaramide], the “v IL-8 inhibition (%)” value [2] was 105.7%, the half-life [3] was 366 min and the EC50 [4] was 20 nM.
For `CC(C)(C)OC(=O)N[C@@H](Cc1c[nH]c2ccccc12)C(=O)NCCC(=O)NC1CCC(=O)NC1=O` (stereo partly drawn) [Example 165, BOC-Trp-βA1a-α-aminoglutaramide], the “v IL-8 inhibition (%)” value [2] was 111.5%, the half-life [3] was 240 min and the EC50 [4] was 5 nM.
For `CCCCCCCCCCCC(=O)NCCCC[C@H](N)C(=O)N[C@@H](CC(=O)O)C(=O)N[C@H]1CSSC[C@@H](C(N)=O)NC(=O)[C@H](CCC(N)=O)NC(=O)[C@H]([C@@H](C)CC)NC(=O)[C@H](Cc2c[nH]c3ccccc23)NC(=O)[C@H](CCCCN)NC(=O)[C@H](CCC(N)=O)NC(=O)[C@H](CCCCN)NC(=O)[C@@H]2CCCN2C(=O)[C@H](CC(=O)O)NC(=O)[C@H](CC(C)C)NC1=O` [Example 170, Lys(Nε-dodecanoyl)-Asp-c(Cys-Leu-Asp-Pro-Lys-Gln-Lys-Trp-Ile-Gln-Cys)-NH2] (H-K(Lauroyl)DCLDPKQKWIQC-NH2; disulfide 3-13), the half-life [1] was 5 min, the “v IL-8 inhibition (%)” value [2] was −5.1% and the EC50 [4] was > 1000 nM.
Molecule `CC(C)OC(=O)N[C@@H](Cc1c[nH]c2ccccc12)C(=O)NCCC(=O)NC1CCC(=O)NC1=O` (stereo partly drawn) [Example 179, N-(isopropoxycarbonyl)-Trp-βAla-α-aminoglutarimide] has a half-life [3] of 546 min.
`N[C@@H](Cc1c[nH]c2ccccc12)C(=O)NCCC(=O)NC1CCC(=O)NC1=O` (stereo partly drawn) [Example 182, Trp-βAla-α-aminoglutaramide] gave a half-life [3] of 54 min and an EC50 [4] of 6 nM.
For `CC[C@@H](C)[C@H]1NC(=O)[C@@H](CCC(N)=O)NC(=O)[C@H](N)CSSC[C@H](C(N)=O)NC(=O)[C@@H](CCCCN)NC(=O)[C@@H](Cc2c[nH]c3ccccc23)NC1=O` [Example 183, c(D-Cys-D-Gln-D-Ile-D-Trp-D-Lys-D-Cys)-NH2] (H-[dC][dQ][dI][dW][dK][dC]-NH2; disulfide 1-6), the half-life [3] was > 1440 min and the EC50 [4] was 20 nM.
For `CC(C)[C@@H](CC(=O)NC1CCC(=O)NC1=O)NC(=O)[C@H](Cc1c[nH]c2ccccc12)NC(=O)OC(C)(C)C` (stereo partly drawn) [Example 184, BOC-Trp-βhVal-α-aminoglutarimide], the half-life [3] was 78 min and the EC50 [4] was 10 nM.
For `CC(C)(NC(=O)[C@@H](N)Cc1c[nH]c2ccccc12)C(=O)NC1CCC(=O)NC1=O` (stereo partly drawn) [Example 188, Trp-Aib-aminoglutarimide], the half-life [3] was 186 min and the EC50 [4] was 66 nM.
With “BOC-Tcc-βAla-α-aminoglutaramide [Example 171]” the “v IL-8 inhibition (%)” value [2] was 84.6%, the “T ½ rat plasma in vitro” value [3] was 510 min and the EC50 [4] was 602 nM.
